Measured values: patent US11639372B1, “Zinc-charged peptides for the treatment of cancer and alzheimer's disease” (priority 2021, dated 2023)
Numbered stars: 1 amine (or outer) side, 2 acyl side, 3 side chain; on linkers, the order of the positions; unused ones are H or OH. Bridge positions count the residues as written; N and C are the ends. Square brackets hold non-standard residues; d marks the D form. Ends that are not written are not given here. Peptide text beside a SMILES is read from it. I, II: the chains in the order shown. Actinocin(9to1) = Cc1c2oc3c(C)ccc(C(=O)[*:1])c3nc-2c(C(=O)[*:2])c(N)c1=O; NMeV = CN[C@H](C(=O)O)C(C)C; Sar = CNCC(=O)O

Columns and labels:
[1] = system: HT-29 colon cancer cells; test: apoptosis in HT-29 cells, combination with chemotherapy drugs; assay type: cell-based; conditions: for interaction of chemotherapy drug with the zinc-charged peptide: drug 6 μg per ml 12 hours, then zinc-charged 4H 4 μM for 6 hours
Description: To test this, HT-29 colon cancer cells were pre-incubated with various chemotherapy drugs at 6 μg per ml for 12 hours, then zinc-charged 4H at 4 μM was added for an additional 6 hours. Most chemotherapy drugs take up to 48 hours to see substantial apoptosis, and as such, the cells were pre-incubated with chemotherapy drugs first. The chemotherapy drugs tested included actinomycin (“A”), carmustine (“C”), docorubicin (“Dox”), genistin (“G”), 5-FU, and Tarceva.

[2] = water solubility of the peptides; assay type: physicochemical; conditions: uncharged peptide, last amino acid changed
[3] = system: various cancer cell lines; test: apoptosis-inducing activity on cancer cell lines (earlier work); assay type: cell-based; conditions: in vitro cell culture
Text: Cow milk is known to contain numerous proteins and other beneficial compounds for humans.
Since alpha-lactalbumin is the major milk protein present in milk, this protein was first tested to determine if the bioactive peptides were derived from alpha-Lactalbumin. Purified alpha-lactalbumin was therefore treated with EDTA and zinc acetate.

[4] = absorption by gastrointestinal tract (earlier work); assay type: in vivo; conditions: before enzymatic digestion with papain
[5] = glycolysis and ATP in brain and muscle of normal mice fed zinc-charged 4H; assay type: in vivo; conditions: 0.5 mg per mouse per day, 5 days, oral
Description: To further study this observed phenomena in vivo, normal mice were fed with the zinc-charged 4H for five days, and the glycolysis of normal brain cells were studied. FIG. 9 depicts the results of this study. For this study, two groups of mice having four mice per group were compared, one being the control and the other being fed 0.5 mg of zinc-charged 4H per mouse per day for 5 days orally. After 5 days, brain and muscle tissue was collected, homogenized, and assayed for glycolysis rate.
In mice fed with 0.5 mg of zinc-charged 4H for 5 days, the brain glycolysis of these mice was enhanced by 44%.

[6] = system: normal WI38 lung cells; test: glycolysis (lactate) inhibition in cell lysate, WI38; assay type: cell-based
Description: (§1) The zinc-charged peptides ability to inhibit glycolysis in other cancer cell lines, such as lung cancer, compared to their normal counterparts was also tested.

[7] = system: Calu-1 lung cancer cells; test: glycolysis (lactate) inhibition in cell lysate, Calu-1; assay type: cell-based
Description: as §1

[8] = system: normal colon cell line CCD18Co; test: glycolysis (lactate) inhibition in cell lysate, CCD18Co; assay type: cell-based
[9] = target: T1, hexokinase II (Homo sapiens, UniProt P52789); test: subcellular hexokinase II activity in HT-29 cells; assay type: cell-based; conditions: HT-29, 1 μM, 5 hours
T1 sequence (P52789 1-917): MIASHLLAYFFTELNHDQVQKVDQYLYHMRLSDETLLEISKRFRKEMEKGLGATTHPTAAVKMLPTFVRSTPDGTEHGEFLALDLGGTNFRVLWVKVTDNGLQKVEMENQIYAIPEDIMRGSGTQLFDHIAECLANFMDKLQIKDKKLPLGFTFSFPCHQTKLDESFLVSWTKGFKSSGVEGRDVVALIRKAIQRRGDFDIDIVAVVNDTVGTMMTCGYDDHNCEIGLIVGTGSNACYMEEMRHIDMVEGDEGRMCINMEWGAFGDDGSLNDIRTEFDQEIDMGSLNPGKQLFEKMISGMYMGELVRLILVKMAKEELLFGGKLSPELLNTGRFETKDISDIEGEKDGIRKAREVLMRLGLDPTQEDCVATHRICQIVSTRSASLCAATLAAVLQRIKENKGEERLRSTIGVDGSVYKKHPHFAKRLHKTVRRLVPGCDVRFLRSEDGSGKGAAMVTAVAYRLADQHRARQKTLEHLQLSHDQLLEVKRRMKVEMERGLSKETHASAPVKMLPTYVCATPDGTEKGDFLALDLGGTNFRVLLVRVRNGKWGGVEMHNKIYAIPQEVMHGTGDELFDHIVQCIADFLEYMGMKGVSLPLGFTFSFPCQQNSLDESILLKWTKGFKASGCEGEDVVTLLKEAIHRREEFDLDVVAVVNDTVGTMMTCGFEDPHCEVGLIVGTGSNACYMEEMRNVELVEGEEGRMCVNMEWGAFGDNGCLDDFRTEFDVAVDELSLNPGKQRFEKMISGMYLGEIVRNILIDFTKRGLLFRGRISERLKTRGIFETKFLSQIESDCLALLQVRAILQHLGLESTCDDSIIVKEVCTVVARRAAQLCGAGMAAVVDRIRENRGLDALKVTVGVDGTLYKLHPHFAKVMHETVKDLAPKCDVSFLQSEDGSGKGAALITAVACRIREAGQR
Description: FIGS. 14-16 depicts the testing results validating that the zinc-charged peptides inhibit each of these three bioenergetic pathways. FIG. 14 depicts the subcellular hexokinase II activity in mitochondria, cytosol, and microsome to determine whether the zinc-charged peptides inhibit the hexokinase II activity in mitochondria. For this test, HT-29 cancer cells were incubated with zinc-charged 4H at 1 μM for 5 hours. After incubation, sub-cellular fractions including cytosol, microsome, and mitochondria were prepared and the hexokinase II activity on these sub-cellular fractions were tested.

[10] = target: T1, hexokinase II; test: in vitro hexokinase II assay; assay type: biochemical
Description: To test confirm that the zinc-charged peptides inhibit hexokinase II resulting in the inhibition of glycolysis, an in vitro hexokinase II assay was performed. FIG. 7 depicts the results of the in vitro hexokinase II assay. In this test, it was observed that hexokinase II was inhibited by zinc-charged 4H in a dose-dependent manner. […] These findings confirm that the zinc-charged peptides inhibit glycolysis at the hexokinase II enzyme level.

[11] = system: HT-29 colon cancer cells; test: glycolysis (lactate) inhibition in cell lysate, HT-29; assay type: cell-based
[12] = system: HT-29 cancer cells; test: biochemical analysis of HT-29 cell lysate (lactate, ATP, G-6-P); assay type: cell-based
Description: To determine the mechanism of induction of apoptosis to HT-29 cancer cells by the zinc-charged peptides, a low concentration (1 μM) of zinc-charged 4H was incubated with HT-29 cancer cells, followed by biochemical analysis of the cell lysate of the HT-29 cancer cells.
Furthermore, the decreased lactate was associated with a lower ATP level and a lower Glucose-6-phosphate (G-6-P) level in HT-29 cells.

With `O=c1[nH]cc(F)c(=O)[nH]1` [5-FU] the “interaction of chemotherapy drug with the zinc-charged peptide” value (from here on “interaction of chemotherapy drug”) [1] was “synergistic”.
In the case of `Cc1c2oc3c(C)ccc(C(=O)N[C@@H]4C(=O)N[C@H](C(C)C)C(=O)N5CCC[C@H]5C(=O)N(C)CC(=O)N(C)[C@@H](C(C)C)C(=O)O[C@@H]4C)c3nc-2c(C(=O)N[C@@H]2C(=O)N[C@H](C(C)C)C(=O)N3CCC[C@H]3C(=O)N(C)CC(=O)N(C)[C@@H](C(C)C)C(=O)O[C@@H]2C)c(N)c1=O` [actinomycin] (I: T[dV]P[Sar][NMeV] / II: T[dV]P[Sar][NMeV]; ester I:1-I:C, II:1-II:C; linker I:N-II:N via Actinocin(9to1)), the “interaction of chemotherapy drug” value [1] is reported as “synergistic”.
For `O=NN(CCCl)C(=O)NCCCl` [carmustine], the “interaction of chemotherapy drug” value [1] was “synergistic”.
With `COc1cccc2c1C(=O)c1c(O)c3c(c(O)c1C2=O)C[C@@](O)(C(=O)CO)C[C@@H]3O[C@H]1C[C@H](N)[C@H](O)[C@H](C)O1` [doxorubicin] the “interaction of chemotherapy drug” value [1] was “synergistic”.
For `O=c1c(-c2ccc(O)cc2)coc2cc(O[C@@H]3O[C@H](CO)[C@@H](O)[C@H](O)[C@H]3O)cc(O)c12` [genistin], the “interaction of chemotherapy drug” value [1] was “synergistic”.
With “EYGLFQISNKK [4H3, E-Y-G-L-F-Q-I-S-N-K-K]” the “water solubility compared with 4H” value [2] was “more water-soluble”.
With “zinc-bound alpha-lactalbumin: purified alpha-lactalbumin treated with EDTA and zinc acetate” the “apoptosis-inducing activity on various cancer cell lines” value [3] was “contain apoptosis-inducing activity” and the “absorption by gastrointestinal tract” value [4] was “unable to be absorbed”.
In the case of “zinc-charged 4H: peptide E-Y-G-L-F-Q-I-S-N-K-L (SEQ. ID NO. 1) charged with zinc ions by EDTA then zinc acetate treatment (EYGLFQISNKL; also: charged with zinc ions)”, the “enhancement of brain glycolysis” value [5] is reported as 44%, the “increase in brain ATP level” value [5] is reported as 31.4% and the “increase of muscle glycolysis” value [5] is reported as 15%. For the same molecule, the “percentage of apoptosis in HT-29 cells when added to chemotherapy drugs” value ([1]; zinc-charged 4H 4 μM, 6 hours after 12 hours drug pre-incubation) was “significantly increased”, the inhibition of glycolysis [6] was 0% and the inhibition of glycolysis [7] was 11.1%. The inhibition of glycolysis [8] was 10.5%, the “inhibition of mitochondria associated hexokinase II activity” value [9] was 53% and the “hexokinase II inhibition” value ([10]; 5 μM) was 28.6%. The “hexokinase II inhibition” value ([10]; 10 μM) was 79.1%, the “hexokinase II inhibition” value ([10]; 20 μM) was 94.6% and the inhibition of glycolysis [11] was “up to 34.7%”. For the same molecule, the “lactate lower than control cells” value ([12]; 1 μM, HT-29 cell lysate) was 81.4% and the “reduction of intracellular G-6-P level” value ([12]; HT-29, after 6 hours of incubation) was 39.6%.
